# PubChem BioAssay (NCI)
# Several values for one entry are separate records, joined by “and”; a condition that tells them apart may be missing. Equal values may be shown once.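 Compound exposure: 48 hours, 5 concentrations, 96-well plates. Abbreviation: GI50, concentration required for 50% inhibition of growth. At the TGI there is no net growth.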
# Tested on: HCT-15 colon
# Experiment: NCI-60 cell line screen, 48 h
SMILES,GI50,TGI
COc1ccc(C(O)(CCC(C)C)C(CN2CCOCC2)c2ccc(Cl)cc2)cc1 (stereo unspecified),10.3 µM,24.1 µM
Cn1c(=O)c(Oc2ccc(F)cc2)cc2cnc(NC3CCOCC3)nc21,> 25 µM,> 25 µM
CC1(C)N=C(N)N=C(N)N1c1ccc(CCCCc2ccc(Cl)c(S(=O)(=O)F)c2)c(Cl)c1,0.597 µM,> 100 µM
Cc1cc2cc3c(=O)[nH]c(=O)[nH]c3nc2cc1C,–,> 100 µM
CCc1c(Cl)c(C)cc(O)c1Cl,–,38.9 µM
CC(C)OC(=O)[C@H](C)NP(=O)(OC[C@H]1O[C@@H](n2ccc(=O)[nH]c2=O)[C@](C)(F)[C@@H]1O)Oc1ccccc1 (stereo partly specified),> 100 µM,> 100 µM
BrCc1cccc(C[P+](c2ccccc2)(c2ccccc2)c2ccccc2)c1,> 100 µM,> 100 µM
C=COC(=O)N[C@H]1CCc2cc(OC)c(OC)c(OC)c2-c2ccc(SC)c(=O)cc21,–,> 100 µM
Cc1ccc(NC(=O)CCc2nnc(N)o2)cc1,–,> 100 µM
O=C(O)c1ccc(C(=O)O)c2c(C(=O)O)ccc(C(=O)O)c12,–,> 100 µM
CSc1nc(NC2OC(COC(C)=O)C(OC(C)=O)C(OC(C)=O)C2OC(C)=O)c(N=CC=Nc2c(NC3OC(COC(C)=O)C(OC(C)=O)C(OC(C)=O)C3OC(C)=O)nc(SC)n(C)c2=O)c(=O)n1C (stereo unspecified),> 50 µM,> 100 µM
O=S(=O)(Nc1ccc(Cl)cc1Cl)c1ccc(-c2cnc(C3CC3)o2)cc1,0.445 µM,40.4 µM
CCc1ccc(/C=C/c2ccc(O)c3ncccc23)[n+](C)c1,40.9 µM,> 100 µM
S=c1[nH]c2c(Cl)c(Cl)c(Cl)c(Cl)c2[nH]1,–,53.5 µM
O=C(/C=C/C=C/c1ccccc1)c1ccccc1,–,28.8 µM

# Tested on: MOLT-4 leukemia
# Experiment: NCI-60 cell line screen, 48 h
SMILES,GI50,TGI
CCN(Cc1ccc(F)cc1)c1ccc(CO)c(Br)c1,18.8 µM,53.1 µM
Cc1ccc2c(C3C(C#N)=C(N)Oc4cc5ccccc5cc43)cc(=O)oc2c1 (stereo unspecified),2.05 µM,> 100 µM
COC(=O)c1cc2c(s1)-c1nccc3c1c(nc1ccccc13)C2=O,> 100 µM,> 100 µM
COc1ccc(-c2cc(/C=C/C(=O)c3ccc(OC)c(OC)c3)[nH]n2)cc1,2.67 µM,8 µM
C[Si](C)(C)/C(I)=C/CO,–,35.3 µM
C[N+](C)(C)CC1CCC/C1=N\OC(=O)c1ccccc1 (stereo unspecified),–,> 100 µM
Oc1ccc(Nc2c3ccccc3nc3occ(Cl)c23)cc1,3.14 µM,13.2 µM
O=C(Nc1cc(C(F)(F)F)ccc1Cl)c1cccc(NC2=C(Cl)C(=O)N(Cc3ccccc3)C2=O)c1,2.19 µM,> 100 µM
CCCCCCCN=C(N)c1ccc(N2CCN(c3ccc(C(N)=NCCCCCCC)cc3)CC2)cc1,2.71 µM,> 100 µM
Cc1ccc(S(=O)OCc2c(C)c(C)c(COS(=O)c3ccc(C)cc3)c(C)c2C)cc1 (stereo unspecified),–,> 100 µM
COc1ccc2c(c1)c[n+](C)c1c3cc(OC)c(OC)cc3ccc21,0.358 µM and 1.7 µM,3.81 µM and 17.9 µM
CN(C)C(=S)Sc1ccc([N+](=O)[O-])cc1[N+](=O)[O-],2.04 µM,> 42 µM
C[C@H]1CN[C@@H]2[C@@H](C)[C@H]3[C@@H](C[C@H]4[C@@H]5CC[C@H]6C[C@@H](N)CC[C@]6(C)[C@H]5CC[C@]34C)O[C@@]2(O)C1,–,7.77 µM
CSc1ccccc1C#C/C=C\C#Cc1ccccc1N,8.04 µM,> 100 µM
COc1ccc(C(O)(CCC(C)C)C(CN2CCOCC2)c2ccc(Cl)cc2)cc1 (stereo unspecified),9.83 µM,33.1 µM
Cn1c(=O)c(Oc2ccc(F)cc2)cc2cnc(NC3CCOCC3)nc21,> 25 µM,> 25 µM
CC1(C)N=C(N)N=C(N)N1c1ccc(CCCCc2ccc(Cl)c(S(=O)(=O)F)c2)c(Cl)c1,0.622 µM,14.8 µM
Cc1cc2cc3c(=O)[nH]c(=O)[nH]c3nc2cc1C,–,> 100 µM
CCc1c(Cl)c(C)cc(O)c1Cl,–,95.2 µM
CC(C)OC(=O)[C@H](C)NP(=O)(OC[C@H]1O[C@@H](n2ccc(=O)[nH]c2=O)[C@](C)(F)[C@@H]1O)Oc1ccccc1 (stereo partly specified),> 100 µM,> 100 µM
BrCc1cccc(C[P+](c2ccccc2)(c2ccccc2)c2ccccc2)c1,65 µM,> 100 µM
C=COC(=O)N[C@H]1CCc2cc(OC)c(OC)c(OC)c2-c2ccc(SC)c(=O)cc21,–,> 96.8 µM
Cc1ccc(NC(=O)CCc2nnc(N)o2)cc1,–,> 100 µM
O=C(O)c1ccc(C(=O)O)c2c(C(=O)O)ccc(C(=O)O)c12,–,> 100 µM
CSc1nc(NC2OC(COC(C)=O)C(OC(C)=O)C(OC(C)=O)C2OC(C)=O)c(N=CC=Nc2c(NC3OC(COC(C)=O)C(OC(C)=O)C(OC(C)=O)C3OC(C)=O)nc(SC)n(C)c2=O)c(=O)n1C (stereo unspecified),> 50 µM,> 100 µM
O=S(=O)(Nc1ccc(Cl)cc1Cl)c1ccc(-c2cnc(C3CC3)o2)cc1,0.692 µM,> 100 µM
CCc1ccc(/C=C/c2ccc(O)c3ncccc23)[n+](C)c1,3.72 µM,> 100 µM
S=c1[nH]c2c(Cl)c(Cl)c(Cl)c(Cl)c2[nH]1,–,78 µM
O=C(/C=C/C=C/c1ccccc1)c1ccccc1,–,49.4 µM

# Tested on: HCT-116 colon
# Experiment: NCI-60 cell line screen, 48 h
SMILES,GI50,TGI
CCN(Cc1ccc(F)cc1)c1ccc(CO)c(Br)c1,0.046 µM,12.6 µM
Cc1ccc2c(C3C(C#N)=C(N)Oc4cc5ccccc5cc43)cc(=O)oc2c1 (stereo unspecified),0.531 µM,32.8 µM
COC(=O)c1cc2c(s1)-c1nccc3c1c(nc1ccccc13)C2=O,> 100 µM,> 100 µM
COc1ccc(-c2cc(/C=C/C(=O)c3ccc(OC)c(OC)c3)[nH]n2)cc1,1.01 µM,2.48 µM
C[Si](C)(C)/C(I)=C/CO,–,27.5 µM
C[N+](C)(C)CC1CCC/C1=N\OC(=O)c1ccccc1 (stereo unspecified),–,> 100 µM
Oc1ccc(Nc2c3ccccc3nc3occ(Cl)c23)cc1,5.85 µM,> 100 µM
O=C(Nc1cc(C(F)(F)F)ccc1Cl)c1cccc(NC2=C(Cl)C(=O)N(Cc3ccccc3)C2=O)c1,10.3 µM,> 100 µM
CCCCCCCN=C(N)c1ccc(N2CCN(c3ccc(C(N)=NCCCCCCC)cc3)CC2)cc1,–,> 72.1 µM
Cc1ccc(S(=O)OCc2c(C)c(C)c(COS(=O)c3ccc(C)cc3)c(C)c2C)cc1 (stereo unspecified),–,> 100 µM
COc1ccc2c(c1)c[n+](C)c1c3cc(OC)c(OC)cc3ccc21,1.08 µM and 2.48 µM,2.32 µM and 10 µM
CN(C)C(=S)Sc1ccc([N+](=O)[O-])cc1[N+](=O)[O-],1.54 µM,3.7 µM
C[C@H]1CN[C@@H]2[C@@H](C)[C@H]3[C@@H](C[C@H]4[C@@H]5CC[C@H]6C[C@@H](N)CC[C@]6(C)[C@H]5CC[C@]34C)O[C@@]2(O)C1,–,3.14 µM
CSc1ccccc1C#C/C=C\C#Cc1ccccc1N,4.58 µM,16.9 µM
COc1ccc(C(O)(CCC(C)C)C(CN2CCOCC2)c2ccc(Cl)cc2)cc1 (stereo unspecified),4.68 µM,19.1 µM
Cn1c(=O)c(Oc2ccc(F)cc2)cc2cnc(NC3CCOCC3)nc21,> 25 µM,> 25 µM
CC1(C)N=C(N)N=C(N)N1c1ccc(CCCCc2ccc(Cl)c(S(=O)(=O)F)c2)c(Cl)c1,0.31 µM,> 39.1 µM
Cc1cc2cc3c(=O)[nH]c(=O)[nH]c3nc2cc1C,–,> 100 µM
CCc1c(Cl)c(C)cc(O)c1Cl,–,> 100 µM
CC(C)OC(=O)[C@H](C)NP(=O)(OC[C@H]1O[C@@H](n2ccc(=O)[nH]c2=O)[C@](C)(F)[C@@H]1O)Oc1ccccc1 (stereo partly specified),> 100 µM,> 100 µM
BrCc1cccc(C[P+](c2ccccc2)(c2ccccc2)c2ccccc2)c1,6.02 µM,> 100 µM
C=COC(=O)N[C@H]1CCc2cc(OC)c(OC)c(OC)c2-c2ccc(SC)c(=O)cc21,–,0.74 µM
Cc1ccc(NC(=O)CCc2nnc(N)o2)cc1,–,> 100 µM
O=C(O)c1ccc(C(=O)O)c2c(C(=O)O)ccc(C(=O)O)c12,–,> 100 µM
CSc1nc(NC2OC(COC(C)=O)C(OC(C)=O)C(OC(C)=O)C2OC(C)=O)c(N=CC=Nc2c(NC3OC(COC(C)=O)C(OC(C)=O)C(OC(C)=O)C3OC(C)=O)nc(SC)n(C)c2=O)c(=O)n1C (stereo unspecified),> 50 µM,> 100 µM
O=S(=O)(Nc1ccc(Cl)cc1Cl)c1ccc(-c2cnc(C3CC3)o2)cc1,0.431 µM,> 65.4 µM
CCc1ccc(/C=C/c2ccc(O)c3ncccc23)[n+](C)c1,4.02 µM,> 100 µM
S=c1[nH]c2c(Cl)c(Cl)c(Cl)c(Cl)c2[nH]1,–,46.8 µM
O=C(/C=C/C=C/c1ccccc1)c1ccccc1,–,31.4 µM
